The assay deals with Serine/threonine-protein kinase PAK 6 (Homo sapiens) (UniProt Q9NQU5). The assay is described as follows: ligand-induced stabilization of human PAK6 kinase – biophysical, DSF, SYPRO orange, recombinant protein (AID 391). The following applies: recombinant PAK6, DSF thermal shift, at 10 µM, protein 2 µM, buffer 10 mM HEPES, pH 7.5, NaCl 150 mM.
The mark [1] stands for this setting: run set 2, stronger effect = higher value.
Where [2] appears, read: run set 1, stronger effect = higher value.

Sequence of Serine/threonine-protein kinase PAK 6 (Homo sapiens) (Q9NQU5 whole entry, looked up): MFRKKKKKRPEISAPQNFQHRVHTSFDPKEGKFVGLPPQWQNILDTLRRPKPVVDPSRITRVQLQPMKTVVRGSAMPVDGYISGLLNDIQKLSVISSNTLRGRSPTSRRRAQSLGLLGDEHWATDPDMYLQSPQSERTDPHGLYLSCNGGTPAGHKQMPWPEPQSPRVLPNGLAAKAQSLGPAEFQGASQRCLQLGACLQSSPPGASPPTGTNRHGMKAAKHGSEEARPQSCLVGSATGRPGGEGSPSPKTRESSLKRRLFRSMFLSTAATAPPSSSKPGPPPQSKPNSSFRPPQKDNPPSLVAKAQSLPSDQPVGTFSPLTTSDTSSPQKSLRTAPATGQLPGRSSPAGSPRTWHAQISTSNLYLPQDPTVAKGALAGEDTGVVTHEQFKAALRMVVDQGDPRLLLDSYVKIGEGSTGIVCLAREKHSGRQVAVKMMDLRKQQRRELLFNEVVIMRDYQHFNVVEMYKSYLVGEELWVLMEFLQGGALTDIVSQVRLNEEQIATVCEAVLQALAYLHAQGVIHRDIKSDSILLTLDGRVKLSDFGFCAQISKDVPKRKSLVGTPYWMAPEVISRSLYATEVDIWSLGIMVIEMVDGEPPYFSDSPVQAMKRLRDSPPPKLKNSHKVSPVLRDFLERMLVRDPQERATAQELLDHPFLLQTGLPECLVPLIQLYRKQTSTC

`Cn1cc(/C=C2\C(=O)Nc3ccc(S(N)(=O)=O)cc32)c2ccccc21`: the Tm shift under setting [1] was 4.26 Celsius.

As to `O=C1NC(=O)c2c1c1c3ccccc3n3c1c1c2c2ccccc2n1[C@@H]1CCC3O1`, under setting [2], the Tm shift is 6.44 Celsius.

In the case of `Nc1nc(Nc2ccc(S(N)(=O)=O)cc2)nn1C(=S)Nc1c(F)cccc1F`, under setting [1], the Tm shift was 5.64 Celsius.

For the molecule `N#Cc1ccc(-c2cnc3ccc(NC4CCOCC4)nn23)cc1`, the Tm shift under setting [1] is 3.3 Celsius.

Take `O=C1Cc2c([nH]c3ccc(N(O)O)cc23)-c2ccccc2N1`: under setting [2], the Tm shift is 3.92 Celsius.

`NC(=O)c1ccc(-c2nc(-c3ccc4c(c3)OCCO4)c(-c3ccccn3)[nH]2)cc1`: the Tm shift under setting [1] was 4.8 Celsius.

On to `O=Nc1c(-c2c(O)[nH]c3ccccc23)[nH]c2ccccc12`, for which the Tm shift under setting [1] is 8.7 Celsius.

With `NCCCn1cc(C2=C(c3c[nH]c4ccccc34)C(=O)NC2=O)c2ccccc21`, the Tm shift under setting [2] was 4.48 Celsius.

With `CC(O)(O)C1(O)C[C@@H]2O[C@@]1(C)n1c3ccccc3c3c4c(c5c6ccccc6n2c5c31)C(=O)NC4` (some centres undefined), the Tm shift under setting [1] was 7.7 Celsius.

Consider `Clc1ccc(-c2cnc3ccc(NC4CCOCC4)nn23)cc1`, for which, under setting [1], the Tm shift was 3.5 Celsius.

`CCN(CC)CCNC(=O)c1c(C)[nH]c(/C=C2\C(=O)Nc3ccc(Cl)cc32)c1C`: the Tm shift under setting [1] is 3.8 Celsius.

For `NCCNc1ncc(C(N)=O)c(Nc2cccc(C(F)(F)F)c2)n1`, the Tm shift under setting [1] is 5.21 Celsius.

In the case of `Cc1cc(Nc2nc(-c3ccccc3)nc3ccccc23)n[nH]1`, under setting [1], the Tm shift is 5.45 Celsius.

In the case of `CC(C)n1cnc2c(Nc3cccc(Cl)c3)nc(NCCO)nc21`, the Tm shift was 4.44 Celsius under setting [2] and 3.2 Celsius under setting [1].

Turning to `CCn1cnc2c(Nc3cccc(Cl)c3)nc(N[C@@H]3CCCC[C@@H]3N)nc21`, the Tm shift under setting [1] is 7 Celsius.

As for `O=Nc1c(-c2c(O)[nH]c3cc(Br)ccc23)[nH]c2ccccc12`, the Tm shift under setting [1] is 3.4 Celsius.

On to `CC(C)C(CO)Nc1nc(Nc2cccc(Cl)c2)c2ncn(C(C)C)c2n1` (centres undefined), for which the Tm shift under setting [2] was 5.88 Celsius.

As for `N=C(N)SCCCn1cc(C2=C(c3c[nH]c4ccccc34)C(=O)NC2=O)c2ccccc21`, the Tm shift under setting [2] was 3.13 Celsius.

`O=Nc1c(-c2c(O)[nH]c3ccc(S(O)(O)O)cc23)[nH]c2ccccc12`: the Tm shift under setting [2] was 3.24 Celsius.

For `OCC(O)CCO/N=C1/C(c2c(O)[nH]c3ccccc23)=Nc2ccccc21` (centres undefined), under setting [1], the Tm shift was 3.3 Celsius.

For `NC(=O)Nc1sc(-c2ccccc2)cc1C(N)=O`, the Tm shift under setting [2] was 3.43 Celsius.

With `O=C1NCc2c1c1c3ccccc3[nH]c1c1[nH]c3ccccc3c21`, the Tm shift under setting [1] is 3.1 Celsius.

As for `O=C1Cc2c([nH]c3ccc(Br)cc23)-c2ccccc2N1`, the Tm shift under setting [1] is 3.2 Celsius.
